Where two headings read alike, the source gives them in different places.
Key:
MEFs = settings: OSKM, cited from earlier work
human Nanog promoter = assay: Nanog-luc luciferase reporter assay (stably transfected CV1 cells); assay type: cell-based; settings: for Nanog-luc fold Induction: compound at 1 μM, Nanog-luc cells, triplicates
Description: Oct4, Sox2, and Nanog form a positive regulatory loop to regulate the expression of each other, and Nanog is considered a downstream target gene of Oct4 and Sox2 (37). Therefore, activation of Nanog promoter was used as a validation assay for the identified compounds. Specifically, the Oct4 promoter-activating compounds were tested to ascertain whether they activate a human
Nanog promoter-driven luciferase reporter gene using in triplicate luciferase reporter assays.
(§1) Then the promoter sequences were cloned into pGL4.4-luc-Hyg vector (Promega) to get Oct4-luc or Nanog-luc construct and the fidelity of the Oct4 and Nanog promoter DNA sequences was confirmed by bi-directional sequencing. CV 1 cells were transfected with the Oct4-luc or Nanog-luc constructs and the stably-transfected cells were selected by hygromycine resistance.
(§2) Luciferase Reporter Assays: The Oct4-luc or Nanog-luc cells were treated with compound OAC 1 or its structural analogs at 1 μM concentration or at indicated concentrations in triplicates. Other compounds used include 2 μM BIO, 2 μM BIX, 2 μM
(§3) AzaC, 25 μg/ml Vc, 10 nM Am580, 5 μM tranylcypromine, and 0.5 mM VPA. Luciferase reporter assays were performed as described (51) 24 hr after compound treatment or at indicated time points. For Topflash reporter assays, 0.2 μg β-catenin-responsive Topflash reporter gene plasmid was introduced into CV1 cells using trasfection (Bio-Rad). Compounds were added 6 hr after transfection. Luciferase activity was measured 48 hr after compound treatment using the Glo Luciferase Assay System (Promega).

human Oct4 promoter = assay: Oct4-luc luciferase reporter assay (stably transfected CV1 cells); assay type: cell-based; settings: for Oct4-luc Activity / Oct4-luc fold Induction: compound at 1 μM, Oct4-luc cells, triplicates
Description: A high-throughput screening scheme was designed to identify Oct4 promoter-activating compounds using a luciferase reporter under the control of the human Oct4 promoter (Oct4-luc). […] A stable cell line (Oct4-luc) that expresses luciferase reporter driven by the exogenous Oct4 promoter was established using hygromycin-resistance as a selection marker. These Oct4-luc cells were used for high-throughput screening of a chemical library of 80,000 compounds. The luciferase reporter activity was measured 24 hr after compound treatment. Solvent treatment was included as a negative control.
as §1
Compound Screening: The Oct4-luc cells were seeded at 1.75×10^4 cells per well density into 96-well plates. Compounds were added to cells one day after cell seeding at the concentration of 10 μM for 24 hr in the High-Throughput Screening core facility at City of Hope. Compounds that induced luciferase activity 3-fold or more were selected for further validation in both Oct4-luc and Nanog-luc cells.
as §2, §3

[1] = seeding 5 × 10^4, day 25, reference (4) Lyssiotis 2009
[2] = seeding 7,500, day 30, reference (5) Ichida 2009
[3] = OAC1 1 μM, BIO 2 μM, BIX 2 μM, AzaC 2 μM, Vc 25 μg/ml, Am580 10 nM, tranylcypromine 5 μM, VPA 0.5 mM, two days

## O=C1Cc2c([nH]c3ccc(Br)cc23)-c2ccccc2N1 [Kenpaullone, kenpaullone]
MEFs; [1]
  Colony numbers: 100
  Reprogramming efficiency: 0.2%

## COc1ccc(C(=O)Nc2ccc3[nH]ccc3c2)cc1 [OAC4]
Human Nanog promoter
  Nanog-luc fold Induction: 4.9 fold
Human Oct4 promoter
  Oct4-luc Activity: ++ (Compounds that induce Oct4-luc 1.8-fold or more were classified as “++”)
  Oct4-luc fold Induction: 4.8 fold

## O=C(Nc1ccc2[nH]ccc2c1)c1ccc2nonc2c1 [OAC5]
Human Nanog promoter
  Nanog-luc fold Induction: 2.4 fold
Human Oct4 promoter
  Oct4-luc Activity: ++ (Compounds that induce Oct4-luc 1.8-fold or more were classified as “++”)
  Oct4-luc fold Induction: 2.9 fold

## COc1ccc(C(=O)Nc2ccc3[nH]ncc3c2)cc1 [OAC6]
Human Nanog promoter
  Nanog-luc fold Induction: 2.9 fold
Human Oct4 promoter
  Oct4-luc Activity: ++ (Compounds that induce Oct4-luc 1.8-fold or more were classified as “++”)
  Oct4-luc fold Induction: 3.2 fold

## O=C(Nc1ccc2[nH]ncc2c1)c1ccc(F)cc1 [OAC7]
Human Nanog promoter
  Nanog-luc fold Induction: 2.0 fold
Human Oct4 promoter
  Oct4-luc Activity: ++ (Compounds that induce Oct4-luc 1.8-fold or more were classified as “++”)
  Oct4-luc fold Induction: 2.2 fold

## O=C(Nc1ccc2[nH]ncc2c1)c1ccccc1 [OAC8]
Human Nanog promoter
  Nanog-luc fold Induction: 1.8 fold
Human Oct4 promoter
  Oct4-luc Activity: ++ (Compounds that induce Oct4-luc 1.8-fold or more were classified as “++”)
  Oct4-luc fold Induction: 1.9 fold

## CCOc1ccc(C(=O)Nc2ccc3[nH]ncc3c2)cc1 [OAC9]
Human Nanog promoter
  Nanog-luc fold Induction: 4.4 fold
Human Oct4 promoter
  Oct4-luc Activity: ++ (Compounds that induce Oct4-luc 1.8-fold or more were classified as “++”)
  Oct4-luc fold Induction: 4.4 fold

## CCc1ccc(C(=O)Nc2ccc3[nH]ncc3c2)cc1 [OAC10]
Human Nanog promoter
  Nanog-luc fold Induction: 4.4 fold
Human Oct4 promoter
  Oct4-luc Activity: ++ (Compounds that induce Oct4-luc 1.8-fold or more were classified as “++”)
  Oct4-luc fold Induction: 4.5 fold

## CC(C)c1ccc(C(=O)Nc2ccc3[nH]ncc3c2)cc1 [OAC11]
Human Nanog promoter
  Nanog-luc fold Induction: 3.9 fold
Human Oct4 promoter
  Oct4-luc Activity: ++ (Compounds that induce Oct4-luc 1.8-fold or more were classified as “++”)
  Oct4-luc fold Induction: 3.8 fold

## Cc1ccc(C(=O)Nc2ccc3[nH]ncc3c2)cc1C [OAC13]
Human Nanog promoter
  Nanog-luc fold Induction: 2.9 fold
Human Oct4 promoter
  Oct4-luc Activity: ++ (Compounds that induce Oct4-luc 1.8-fold or more were classified as “++”)
  Oct4-luc fold Induction: 2.8 fold

## CCOc1cccc(C(=O)Nc2ccc3[nH]ncc3c2)c1 [OAC14]
Human Nanog promoter
  Nanog-luc fold Induction: 2.6 fold
Human Oct4 promoter
  Oct4-luc Activity: ++ (Compounds that induce Oct4-luc 1.8-fold or more were classified as “++”)
  Oct4-luc fold Induction: 2.7 fold

## COc1cccc(C(=O)Nc2ccc3[nH]ncc3c2)c1 [OAC15]
Human Nanog promoter
  Nanog-luc fold Induction: 1.9 fold
Human Oct4 promoter
  Oct4-luc Activity: ++ (Compounds that induce Oct4-luc 1.8-fold or more were classified as “++”)
  Oct4-luc fold Induction: 1.9 fold

## COc1ccc(C(=O)Nc2ccc3[nH]c(C)cc3c2)cc1 [OAC16]
Human Nanog promoter
  Nanog-luc fold Induction: 3.43 fold
Human Oct4 promoter
  Oct4-luc Activity: ++ (Compounds that induce Oct4-luc 1.8-fold or more were classified as “++”)
  Oct4-luc fold Induction: 3 fold

## CN(C)c1ccc(C(=O)Nc2ccc3[nH]ncc3c2)cc1 [OAC17]
Human Nanog promoter
  Nanog-luc fold Induction: 4.56 fold
Human Oct4 promoter
  Oct4-luc Activity: ++ (Compounds that induce Oct4-luc 1.8-fold or more were classified as “++”)
  Oct4-luc fold Induction: 4.2 fold

## O=C(Nc1ccc2[nH]ncc2c1)c1ccc(Br)cc1 [OAC18]
Human Nanog promoter
  Nanog-luc fold Induction: 4.5 fold
Human Oct4 promoter
  Oct4-luc Activity: ++ (Compounds that induce Oct4-luc 1.8-fold or more were classified as “++”)
  Oct4-luc fold Induction: 4.49 fold

## Cc1cccc(-c2[nH]ncc2-c2ccc3ncccc3n2)n1 [RepSox2]
MEFs; [2]
  Colony numbers: 7.5
  Reprogramming efficiency: 0.1%

## O=C1O[C@H]([C@@H](O)CO)C(O)=C1O [Vc, Vitamin C, reference compound]
Human Nanog promoter; [3]
  induction of Nanog-luc, comparison with known reprogramming enhancers (in words): no significant effect
Human Oct4 promoter; [3]
  induction of Oct4-luc, comparison with known reprogramming enhancers (in words): no significant effect

Reference: US8962322B2, “Enhancers of induced pluripotent stem cell reprogramming” (City of Hope, priority 2012, dated 2015)
